Twelve molecules from ChEMBL document CHEMBL1147701, “Novel 4-anilinoquinazolines with C-6 carbon-linked side chains: synthesis and structure-activity relationship of a series of potent, orally active, EGF receptor tyrosine kinase inhibitors” (Bioorg Med Chem Lett, 2006) can be followed below.

As a reminder, the IC50 is the concentration at which inhibition is half-maximal. High values mean weaker potency in that assay, low ones greater potency in that assay. Broadly, the pKa is the pH at which an ionisable group is half protonated. Low readings indicate a group that gives up its proton readily, high ones a group that holds its proton tightly. A word on the clearance: it is the volume of plasma or blood freed of the substance per unit of time. A lower clearance goes with inefficient removal. As a reminder, the bioavailability is dose-corrected exposure relative to a reference, in per cent. A high value points to much systemic uptake.

Series [1] addresses T1, Serine/threonine-protein kinase Sgk1 (Homo sapiens, UniProt O00141).
T1 sequence (O00141 whole entry): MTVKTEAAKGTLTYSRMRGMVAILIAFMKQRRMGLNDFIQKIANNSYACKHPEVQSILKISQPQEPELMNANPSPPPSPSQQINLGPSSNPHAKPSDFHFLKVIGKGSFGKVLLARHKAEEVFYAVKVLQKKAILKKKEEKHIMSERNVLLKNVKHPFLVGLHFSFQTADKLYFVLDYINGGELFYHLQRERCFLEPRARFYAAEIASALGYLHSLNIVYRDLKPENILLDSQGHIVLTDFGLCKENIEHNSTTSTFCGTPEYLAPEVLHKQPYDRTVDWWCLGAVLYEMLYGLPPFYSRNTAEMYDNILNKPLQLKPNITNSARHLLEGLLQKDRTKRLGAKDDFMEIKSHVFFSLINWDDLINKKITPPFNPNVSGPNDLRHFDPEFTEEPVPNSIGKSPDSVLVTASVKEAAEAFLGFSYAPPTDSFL
Kind of series: Inhibition of SGK.

The target in series [2] is Mitogen-activated protein kinase 1 (Homo sapiens, UniProt P28482). Kind of series: Inhibition of MAPK.
Sequence of Mitogen-activated protein kinase 1 (P28482 whole entry): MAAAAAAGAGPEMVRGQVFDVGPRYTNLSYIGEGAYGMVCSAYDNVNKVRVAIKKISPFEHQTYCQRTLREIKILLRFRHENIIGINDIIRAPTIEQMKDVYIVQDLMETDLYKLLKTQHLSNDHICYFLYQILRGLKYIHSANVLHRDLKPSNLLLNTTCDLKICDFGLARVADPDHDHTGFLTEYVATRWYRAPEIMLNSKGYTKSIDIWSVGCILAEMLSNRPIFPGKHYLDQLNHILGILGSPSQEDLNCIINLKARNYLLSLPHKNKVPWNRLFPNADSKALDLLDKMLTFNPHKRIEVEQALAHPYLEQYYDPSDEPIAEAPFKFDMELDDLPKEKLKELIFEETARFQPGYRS
The target of series [3] is c-Jun N-terminal kinase, JNK (Homo sapiens, UniProt P45983+P53779+P45984). Kind of series: Inhibition of JNK. The class given is protein assay.
Series [4] deals with cAMP-dependent protein kinase (PKA) (Homo sapiens, UniProt P22694+P17612+P22612). Kind of series: Inhibition of PKA. The class given is protein assay.
A short description of series [5]: Inhibition of CDK.
Series [6] has as its target Proto-oncogene tyrosine-protein kinase Src (Homo sapiens, UniProt P12931). Kind of series: Inhibition of Src.
The target of series [7] is Glycogen synthase kinase-3 beta (Homo sapiens, UniProt P49841). Description: Inhibition of GSK3-beta.
Sequence of Glycogen synthase kinase-3 beta (P49841 whole entry): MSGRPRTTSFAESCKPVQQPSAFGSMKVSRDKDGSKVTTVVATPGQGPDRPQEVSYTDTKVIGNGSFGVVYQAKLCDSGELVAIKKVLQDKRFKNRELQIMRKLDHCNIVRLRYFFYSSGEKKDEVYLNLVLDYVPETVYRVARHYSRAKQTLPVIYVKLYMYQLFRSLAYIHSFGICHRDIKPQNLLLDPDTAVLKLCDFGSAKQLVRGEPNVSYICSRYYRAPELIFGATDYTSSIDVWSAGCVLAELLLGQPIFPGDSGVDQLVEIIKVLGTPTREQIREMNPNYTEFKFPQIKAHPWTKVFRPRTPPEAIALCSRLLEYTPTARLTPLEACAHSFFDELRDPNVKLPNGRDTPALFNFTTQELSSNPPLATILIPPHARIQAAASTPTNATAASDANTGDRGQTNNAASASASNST
Series [8] has as its target AMP-activated protein kinase, AMPK. Kind of series: Inhibition of AMPK. The class given is protein-complex assay.
In series [9] the target is T2, Serine/threonine-protein kinase Chk1 (Homo sapiens, UniProt O14757).
T2 sequence (O14757 whole entry): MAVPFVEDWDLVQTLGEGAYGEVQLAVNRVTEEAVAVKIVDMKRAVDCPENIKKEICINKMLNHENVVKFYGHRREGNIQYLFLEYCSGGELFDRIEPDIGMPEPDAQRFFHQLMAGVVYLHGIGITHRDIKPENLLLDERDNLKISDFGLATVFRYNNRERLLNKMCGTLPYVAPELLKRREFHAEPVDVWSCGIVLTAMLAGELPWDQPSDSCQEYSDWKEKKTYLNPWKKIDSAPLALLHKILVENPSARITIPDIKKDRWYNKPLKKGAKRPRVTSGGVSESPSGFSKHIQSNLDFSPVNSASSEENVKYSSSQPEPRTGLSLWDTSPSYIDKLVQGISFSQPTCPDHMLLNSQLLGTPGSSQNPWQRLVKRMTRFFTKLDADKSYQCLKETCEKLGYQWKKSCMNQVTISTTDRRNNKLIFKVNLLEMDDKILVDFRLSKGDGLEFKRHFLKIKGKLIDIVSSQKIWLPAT
Kind of series: Inhibition of CHK1.

Series [10] has as its target Rho-associated protein kinase 2 (Homo sapiens, UniProt O75116). Kind of series: Inhibition of ROCK2.
For series [11], the target named is Vascular endothelial growth factor receptor 2 (Homo sapiens, UniProt P35968).
Sequence of Vascular endothelial growth factor receptor 2 (P35968 whole entry): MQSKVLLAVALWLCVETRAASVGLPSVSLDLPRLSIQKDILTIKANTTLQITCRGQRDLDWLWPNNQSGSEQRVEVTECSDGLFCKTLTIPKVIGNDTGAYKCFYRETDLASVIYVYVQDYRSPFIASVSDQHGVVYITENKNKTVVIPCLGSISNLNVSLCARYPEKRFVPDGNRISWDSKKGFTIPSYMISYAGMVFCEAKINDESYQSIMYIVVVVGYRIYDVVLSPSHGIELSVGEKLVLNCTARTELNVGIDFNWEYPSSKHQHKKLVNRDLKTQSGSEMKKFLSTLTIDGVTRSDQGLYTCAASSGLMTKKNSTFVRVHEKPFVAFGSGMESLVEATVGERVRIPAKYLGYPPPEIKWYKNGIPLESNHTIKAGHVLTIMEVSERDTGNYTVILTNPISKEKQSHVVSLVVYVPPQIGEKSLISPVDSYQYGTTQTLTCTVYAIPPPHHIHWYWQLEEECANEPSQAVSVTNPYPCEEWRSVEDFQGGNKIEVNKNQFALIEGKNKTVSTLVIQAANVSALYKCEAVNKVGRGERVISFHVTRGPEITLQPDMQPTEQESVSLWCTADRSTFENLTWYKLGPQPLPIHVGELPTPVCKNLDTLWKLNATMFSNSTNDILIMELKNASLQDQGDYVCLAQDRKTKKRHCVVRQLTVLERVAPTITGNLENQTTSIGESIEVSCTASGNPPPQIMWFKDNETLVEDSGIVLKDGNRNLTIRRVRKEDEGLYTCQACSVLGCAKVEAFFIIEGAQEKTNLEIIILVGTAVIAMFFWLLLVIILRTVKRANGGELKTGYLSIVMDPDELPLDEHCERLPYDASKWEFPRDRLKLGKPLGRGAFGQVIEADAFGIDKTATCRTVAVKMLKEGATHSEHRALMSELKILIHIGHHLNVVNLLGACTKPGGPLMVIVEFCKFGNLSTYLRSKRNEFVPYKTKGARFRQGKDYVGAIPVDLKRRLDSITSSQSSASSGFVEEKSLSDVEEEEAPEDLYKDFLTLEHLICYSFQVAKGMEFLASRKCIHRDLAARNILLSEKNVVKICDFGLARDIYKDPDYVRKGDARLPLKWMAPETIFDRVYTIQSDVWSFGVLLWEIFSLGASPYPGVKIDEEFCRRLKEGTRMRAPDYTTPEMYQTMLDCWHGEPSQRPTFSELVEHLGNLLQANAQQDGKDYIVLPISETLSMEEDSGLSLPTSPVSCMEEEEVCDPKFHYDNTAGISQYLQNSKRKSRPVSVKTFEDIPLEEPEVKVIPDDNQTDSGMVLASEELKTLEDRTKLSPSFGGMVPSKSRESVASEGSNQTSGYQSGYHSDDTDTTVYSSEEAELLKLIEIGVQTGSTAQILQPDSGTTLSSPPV
Series [12] addresses Tyrosine-protein kinase Lck (Homo sapiens, UniProt P06239).
For series [13], the target named is MAP kinase p38 (Homo sapiens, UniProt O15264+Q15759+Q16539+P53778).
Series [14] in a line: Dissociation constant, pKa of the compound. The class given is physicochemical.
Series [15] can be described thus: Clearance in rat. The class given is ADME, organism-based. Particulars: in vivo.
Series [16] can be described thus: Volume of distribution in rat. The class given is ADME, organism-based. Particulars: in vivo, read-out: Vdss.
Series [17] can be described thus: Bioavailability in rat. The class given is ADME, organism-based. Conditions: in vivo.

Bounds are passed on as bounds.

Sequence of Rho-associated protein kinase 2 (O75116 whole entry): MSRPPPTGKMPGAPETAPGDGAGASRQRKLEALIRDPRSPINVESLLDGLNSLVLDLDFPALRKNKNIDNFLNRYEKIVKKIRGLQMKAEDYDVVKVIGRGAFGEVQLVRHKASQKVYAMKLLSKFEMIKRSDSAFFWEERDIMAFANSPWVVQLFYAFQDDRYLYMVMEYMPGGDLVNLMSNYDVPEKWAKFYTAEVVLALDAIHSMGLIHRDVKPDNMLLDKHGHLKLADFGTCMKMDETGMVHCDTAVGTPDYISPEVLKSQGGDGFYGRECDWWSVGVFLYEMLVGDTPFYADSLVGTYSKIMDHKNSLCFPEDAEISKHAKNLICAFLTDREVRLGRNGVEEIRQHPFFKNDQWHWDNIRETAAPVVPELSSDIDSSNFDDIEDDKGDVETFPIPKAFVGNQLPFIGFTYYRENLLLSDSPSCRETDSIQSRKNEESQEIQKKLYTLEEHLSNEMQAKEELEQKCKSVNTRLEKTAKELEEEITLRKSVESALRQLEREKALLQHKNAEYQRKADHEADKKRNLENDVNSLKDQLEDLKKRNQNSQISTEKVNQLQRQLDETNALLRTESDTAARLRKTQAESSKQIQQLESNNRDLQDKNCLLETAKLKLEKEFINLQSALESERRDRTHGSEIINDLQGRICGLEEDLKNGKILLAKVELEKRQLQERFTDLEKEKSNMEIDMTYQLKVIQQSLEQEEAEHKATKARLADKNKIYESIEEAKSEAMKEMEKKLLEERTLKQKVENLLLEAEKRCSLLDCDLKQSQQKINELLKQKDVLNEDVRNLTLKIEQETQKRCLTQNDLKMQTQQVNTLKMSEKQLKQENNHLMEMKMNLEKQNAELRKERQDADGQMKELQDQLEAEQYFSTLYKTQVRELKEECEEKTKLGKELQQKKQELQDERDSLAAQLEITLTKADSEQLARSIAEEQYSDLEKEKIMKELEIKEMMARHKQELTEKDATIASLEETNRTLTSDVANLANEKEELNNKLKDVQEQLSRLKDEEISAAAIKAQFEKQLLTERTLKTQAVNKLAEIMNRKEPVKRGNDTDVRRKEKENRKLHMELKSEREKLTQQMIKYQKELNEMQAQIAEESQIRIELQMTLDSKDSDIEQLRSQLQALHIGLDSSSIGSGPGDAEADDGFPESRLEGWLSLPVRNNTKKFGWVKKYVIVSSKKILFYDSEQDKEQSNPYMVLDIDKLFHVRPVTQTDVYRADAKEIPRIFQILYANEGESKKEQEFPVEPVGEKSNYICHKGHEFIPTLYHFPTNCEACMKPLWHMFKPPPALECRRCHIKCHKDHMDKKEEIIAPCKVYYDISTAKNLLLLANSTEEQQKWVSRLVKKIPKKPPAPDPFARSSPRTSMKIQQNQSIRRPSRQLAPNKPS
Sequence of Tyrosine-protein kinase Lck (P06239 whole entry): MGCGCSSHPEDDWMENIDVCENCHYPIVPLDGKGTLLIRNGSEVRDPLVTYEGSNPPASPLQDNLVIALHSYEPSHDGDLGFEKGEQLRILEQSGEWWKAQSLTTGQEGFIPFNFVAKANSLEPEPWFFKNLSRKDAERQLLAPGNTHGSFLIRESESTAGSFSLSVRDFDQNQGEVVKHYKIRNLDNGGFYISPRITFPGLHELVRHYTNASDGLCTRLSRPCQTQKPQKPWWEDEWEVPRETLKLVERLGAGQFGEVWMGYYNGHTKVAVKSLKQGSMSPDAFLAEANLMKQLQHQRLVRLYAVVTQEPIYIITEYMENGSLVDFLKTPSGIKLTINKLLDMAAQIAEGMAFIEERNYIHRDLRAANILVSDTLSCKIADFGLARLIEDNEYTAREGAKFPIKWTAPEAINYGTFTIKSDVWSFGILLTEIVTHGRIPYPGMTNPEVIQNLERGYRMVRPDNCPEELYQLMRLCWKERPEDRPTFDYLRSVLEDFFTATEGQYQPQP
Sequence of Proto-oncogene tyrosine-protein kinase Src (P12931 2-536 limits assumed): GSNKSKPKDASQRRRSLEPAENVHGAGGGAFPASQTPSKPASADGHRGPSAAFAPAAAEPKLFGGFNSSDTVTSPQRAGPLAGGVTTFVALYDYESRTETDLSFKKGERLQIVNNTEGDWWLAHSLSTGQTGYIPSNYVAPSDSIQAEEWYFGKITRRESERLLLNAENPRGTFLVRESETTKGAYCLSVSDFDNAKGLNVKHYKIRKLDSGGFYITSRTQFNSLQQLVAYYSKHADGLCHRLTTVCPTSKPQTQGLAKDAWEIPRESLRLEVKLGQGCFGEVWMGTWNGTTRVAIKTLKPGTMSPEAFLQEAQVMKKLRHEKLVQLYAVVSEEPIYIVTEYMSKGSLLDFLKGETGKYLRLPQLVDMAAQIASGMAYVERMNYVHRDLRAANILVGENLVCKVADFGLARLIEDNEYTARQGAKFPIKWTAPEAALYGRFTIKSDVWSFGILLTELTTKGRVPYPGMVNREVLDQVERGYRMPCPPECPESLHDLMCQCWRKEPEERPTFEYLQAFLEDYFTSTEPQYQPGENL

With `COCC[C@@H](C(N)=O)N(C)Cc1cc2c(Nc3cccc(Cl)c3F)ncnc2cc1OC`, the IC50 in series [1], in series [2], in series [3], in series [4], in series [5] and in series [6] was over 10 µM each time. In addition, the IC50 in [7], in series [8], in series [9], in series [10], in series [11] and in series [12] was over 10 µM throughout. The molecule also displayed a concentration for half-maximal inhibition (IC50) in series [13] of over 10 µM.

For the molecule `COc1cc2ncnc(Nc3ccc(F)c(Cl)c3)c2cc1CN1CCC[C@H]1C(N)=O`, the IC50 in series [1], in [2], in [3], in series [4], in series [5] and in series [6] was over 10 µM each time. Moreover, the IC50 in [7], in series [8], in series [9], in series [10], in series [11] and in series [13] was over 10 µM throughout.

As to `COc1cc2ncnc(Nc3ccc(F)c(Cl)c3)c2cc1CN1CCC[C@@H]1C(N)=O`, the half-maximal inhibitory concentration (IC50) in series [1], in series [2], in series [3], in series [4], in series [5] and in series [6] was over 10 µM throughout. In addition, the half-maximal inhibitory concentration (IC50) in [7], in [8], in series [9], in [10], in series [11] and in [13] was over 10 µM each time.

Consider `COCCN1CC(C(N)=O)(N(C)Cc2cc3c(Nc4cccc(Cl)c4F)ncnc3cc2OC)C1`, for which, in series [14], the pKa stood at 7.1. The clearance in series [15] is 35 mL/min/kg. The Vd in [16] was 4.2 L/kg. Further, the bioavailability in series [17] was under 50%. Further, the IC50 in series [1], in [2], in [3], in series [4], in series [5] and in [6] was over 10 µM each time. For the same molecule, the IC50 in series [7], in [8], in [9], in series [10], in series [11] and in series [12] was over 10 µM each time. Besides, the IC50 in [13] was over 10 µM.

In series [14], `COc1cc2ncnc(Nc3cccc(Cl)c3F)c2cc1CN(C)C1(C(N)=O)CN(C(C)C)C1` gave a pKa of 7.8. In [15], this molecule displayed a clearance of 61 mL/min/kg. The Vd in series [16] turned out to be 7.2 L/kg. In [17], this molecule registered a bioavailability of under 50%. Further, the IC50 in [1], in series [2], in series [3], in series [4], in [6] and in series [7] was over 10 µM each time. Moreover, the IC50 in [8], in [9], in series [10], in series [11] and in series [12] was over 10 µM in each case.

In [14], `COc1cc2ncnc(Nc3cccc(Cl)c3F)c2cc1CN(C)C1(C(N)=O)CN(C)C1` had a pKa of 7.9. The molecule also gave a clearance in series [15] of 55 mL/min/kg. The Vd in [16] was 9.4 L/kg. In addition, in series [17], the bioavailability is under 50%. Also, the half-maximal inhibitory concentration (IC50) in series [1], in series [2], in [3], in series [4], in series [5] and in series [6] was over 10 µM each time. Besides, the half-maximal inhibitory concentration (IC50) in series [7], in series [8], in series [9], in series [10], in series [11] and in series [12] was over 10 µM each time. In [13], this molecule yielded a concentration for half-maximal inhibition (IC50) of over 10 µM.

For the molecule `CNC(=O)[C@@H](C)N(C)Cc1cc2c(Nc3cccc(Cl)c3F)ncnc2cc1OC`, the IC50 in series [1], in series [2], in series [3], in series [4], in series [5] and in series [6] was over 10 µM throughout. Also, the concentration for half-maximal inhibition (IC50) in series [7], in series [8], in series [9], in series [10], in series [11] and in series [12] was over 10 µM in each case. Further, in series [13], the IC50 is over 10 µM.

Consider `COc1cc2ncnc(Nc3cccc(Cl)c3F)c2cc1CN(C)C1(C(N)=O)CCN(C(C)C)CC1`, for which the pKa in series [14] is 9.1. This molecule registered a clearance in series [15] of 114 mL/min/kg. In addition, the Vd in series [16] stood at 4.9 L/kg. In series [17], the bioavailability was under 50%. In addition, the IC50 in series [1], in series [2], in series [3], in [6], in series [7] and in series [8] was over 10 µM in each case. In addition, the concentration for half-maximal inhibition (IC50) in [9], in series [10] and in series [11] was over 10 µM throughout.

Regarding `COc1cc2ncnc(Nc3cccc(Cl)c3F)c2cc1CN1CCC[C@H]1CC(N)=O`, the concentration for half-maximal inhibition (IC50) in series [1], in [2], in [3], in series [4], in series [5] and in series [6] was over 10 µM throughout. Moreover, the half-inhibitory concentration (IC50) in series [7], in series [8], in [9], in [10], in [11] and in series [12] was over 10 µM each time. Also, in [13], the IC50 is over 10 µM.

Consider `COc1cc2ncnc(Nc3cccc(Cl)c3F)c2cc1CN(C)C1(C(N)=O)CCN(C)CC1`, for which, in series [14], the pKa came out at 8.3. The clearance in [15] worked out at 55 mL/min/kg. Moreover, the Vd in series [16] is 7.5 L/kg. Besides, the bioavailability in [17] is under 50%. For the same molecule, the IC50 in series [1], in series [2], in [3], in series [4], in series [5] and in [6] was over 10 µM throughout. In addition, the IC50 in series [7], in [8], in series [9], in [10], in [11] and in series [12] was over 10 µM throughout. The same molecule returned an IC50 in series [13] of over 10 µM.

With `COc1cc2ncnc(Nc3cccc(Cl)c3F)c2cc1CN(C)[C@@H](CN(C)C)C(N)=O`, the IC50 in series [1], in [2], in series [3], in [4], in [5] and in [6] was over 10 µM each time. The IC50 in [7], in [8], in series [9], in [10], in series [11] and in series [12] was over 10 µM in each case. In series [13], this molecule returned a half-maximal inhibitory concentration (IC50) of over 10 µM.

As for `COc1cc2ncnc(Nc3cccc(Cl)c3F)c2cc1CN1CCCC[C@@H]1C(N)=O`, the IC50 in [1], in series [2], in series [3], in series [4], in [5] and in series [6] was over 10 µM throughout. In addition, the IC50 in series [7], in series [8], in [9], in series [10], in [11] and in series [12] was over 10 µM throughout. This molecule also showed an IC50 in [13] of over 10 µM.
